Tests used:
Test in all cases: relative viability (nuclei count vs DMSO), 5 days (fraction); higher = more cells survive
A549 = tested on: A549
How it was run: (§1)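 Lung cancer cell lines in 1536-well plates got either a single drug or a fixed anchor-drug dose together with five library-drug doses (not always all listed) in √10 steps, by pin tool, on the day after seeding. Nuclei were counted after 5 days, and relative viability is the treated-to-vehicle ratio of nuclei counts. Values are medians of duplicate plates.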

Calu-6 = tested on: Calu-6
How it was run: as §1

EBC-1 = tested on: EBC-1
How it was run: as §1

IA-LM = tested on: IA-LM
How it was run: as §1

NCI-H1299 = tested on: NCI-H1299
How it was run: as §1

NCI-H1703 = tested on: NCI-H1703
How it was run: as §1

NCI-H661 = tested on: NCI-H661
How it was run: as §1

NCI-H1648 = tested on: NCI-H1648
How it was run: as §1

Structure (SMILES) | relative viability (A549; first compound 0.04 µM) | relative viability (A549; first compound 0.1265 µM) | relative viability (A549; first compound 0.4 µM) | relative viability (A549; first compound 1.265 µM) | relative viability (A549; first compound 4 µM) | relative viability (Calu-6; first compound 0.04 µM) | relative viability (Calu-6; first compound 0.1265 µM) | relative viability (Calu-6; first compound 0.4 µM) | relative viability (Calu-6; first compound 1.265 µM) | relative viability (Calu-6; first compound 4 µM) | relative viability (EBC-1; first compound 0.04 µM) | relative viability (EBC-1; first compound 0.1265 µM) | relative viability (EBC-1; first compound 0.4 µM) | relative viability (EBC-1; first compound 1.265 µM) | relative viability (EBC-1; first compound 4 µM) | relative viability (IA-LM; first compound 0.04 µM) | relative viability (IA-LM; first compound 0.1265 µM) | relative viability (IA-LM; first compound 0.4 µM) | relative viability (IA-LM; first compound 1.265 µM) | relative viability (IA-LM; first compound 4 µM) | relative viability (NCI-H1299; first compound 0.04 µM) | relative viability (NCI-H1299; first compound 0.1265 µM) | relative viability (NCI-H1299; first compound 0.4 µM) | relative viability (NCI-H1299; first compound 1.265 µM) | relative viability (NCI-H1299; first compound 4 µM) | relative viability (NCI-H1703; first compound 0.04 µM) | relative viability (NCI-H1703; first compound 0.1265 µM) | relative viability (NCI-H1703; first compound 1.265 µM) | relative viability (NCI-H1703; first compound 4 µM) | relative viability (NCI-H661; first compound 0.04 µM) | relative viability (NCI-H661; first compound 0.1265 µM) | relative viability (NCI-H661; first compound 0.4 µM) | relative viability (NCI-H661; first compound 4 µM) | relative viability (NCI-H1703; first compound 0.4 µM) | relative viability (NCI-H661; first compound 1.265 µM) | relative viability (NCI-H1648; first compound 0.04 µM) | relative viability (NCI-H1648; first compound 0.1265 µM) | relative viability (NCI-H1648; first compound 0.4 µM) | relative viability (NCI-H1648; first compound 1.265 µM) | relative viability (NCI-H1648; first compound 4 µM)
COc1cc(N2CCC(C(N)=O)CC2)ccc1Nc1nc(N)c(Cl)c(Nc2ccccc2S(=O)(=O)C(C)C)n1 [HG-5-88-01] + C[C@]1(O)C[C@@H](c2nc(-c3ccc4ccc(-c5ccccc5)nc4c3)c3c(N)nccn32)C1 [Linsitinib] (partner 1 µM) | 0.59 | 0.771 | 0.634 | 0.432 | 0.796 | 0.938 | 0.837 | 0.95 | 0.929 | 1.02 | 0.892 | 0.373 | 0.924 | 0.847 | 0.927 | 0.602 | 0.383 | 0.488 | 0.314 | 0.542 | 0.999 | 0.97 | 0.945 | 0.97 | 1.1 | 0.689 | 0.648 | 0.486 | 1.62 | 0.586 | 0.624 | 0.682 | 0.669 | – | – | – | – | – | – | –
Clc1ccc(Nc2nnc(Cc3ccncc3)c3ccccc23)cc1 [Vatalanib] + CS(=O)(=O)N1CCN(Cc2cc3nc(-c4cccc5[nH]ncc45)nc(N4CCOCC4)c3s2)CC1 [Pictilisib] (partner 1 µM) | 0.495 | 0.506 | 0.502 | 0.52 | 0.505 | 0.891 | 0.907 | 0.986 | 0.883 | 0.835 | 0.346 | 0.393 | 0.45 | 0.276 | 0.411 | 0.368 | 0.354 | 0.319 | 0.337 | 0.36 | 0.835 | 0.703 | 0.967 | 0.66 | 0.857 | 0.229 | 0.206 | 0.209 | 0.227 | 0.345 | 0.378 | 0.392 | 0.34 | 0.242 | 0.365 | – | – | – | – | –
C[C@@H]1CN(CC(=O)Nc2ccc3c(c2)Cc2cccc(-c4cc(=O)cc(N5CCOCC5)o4)c2S3)C[C@H](C)O1 + CC(C)C[C@H](NC(=O)[C@H](Cc1ccccc1)NC(=O)c1cnccn1)B(O)O [Bortezomib] (partner 0.002 µM) | – | – | – | – | – | 1.07 | 1.03 | 1.08 | – | 0.66 | 0.636 | 0.535 | 0.472 | – | 0.335 | 0.669 | 0.773 | 0.832 | – | 0.375 | 1.03 | 1.03 | 1.01 | – | 0.926 | 0.469 | 0.365 | – | 0.254 | – | 0.798 | 0.765 | 0.778 | 0.241 | – | – | – | – | – | –
COc1cc(N2CCC(C(N)=O)CC2)ccc1Nc1nc(N)c(Cl)c(Nc2ccccc2S(=O)(=O)C(C)C)n1 [HG-5-88-01] + NC(=O)Nc1cc(-c2cccc(F)c2)sc1C(=O)N[C@H]1CCCNC1 [AZD7762] (partner 0.2 µM) | – | – | – | – | – | – | – | – | – | – | – | – | – | – | – | – | – | – | – | – | – | – | – | – | – | 0.106 | 0.133 | 0.122 | 0.124 | – | – | – | – | – | – | 0.63 | 0.624 | 0.695 | 0.683 | 0.654
C[C@@H]1CN(CC(=O)Nc2ccc3c(c2)Cc2cccc(-c4cc(=O)cc(N5CCOCC5)o4)c2S3)C[C@H](C)O1 + C[C@]1(O)C[C@@H](c2nc(-c3ccc4ccc(-c5ccccc5)nc4c3)c3c(N)nccn32)C1 [Linsitinib] (partner 1 µM) | 0.471 | 0.709 | 0.58 | – | 0.488 | 0.858 | 0.911 | 0.938 | – | 0.673 | 1.01 | 0.867 | 0.84 | – | 0.599 | 0.713 | 0.549 | 0.528 | – | 0.283 | 1.01 | 0.978 | 0.964 | – | 0.822 | 0.853 | 1.24 | – | 0.492 | – | 0.556 | 0.599 | 0.506 | 0.549 | – | – | – | – | – | –
COc1cc(N2CCC(C(N)=O)CC2)ccc1Nc1nc(N)c(Cl)c(Nc2ccccc2S(=O)(=O)C(C)C)n1 [HG-5-88-01] + CC(C)C[C@H](NC(=O)[C@H](Cc1ccccc1)NC(=O)c1cnccn1)B(O)O [Bortezomib] (partner 0.002 µM) | – | – | – | – | – | 1.03 | 0.998 | 0.978 | 0.925 | 0.841 | 0.567 | 0.624 | 0.549 | 0.474 | 0.241 | 0.835 | 0.849 | 0.724 | 0.812 | 0.666 | 1.02 | 1.02 | 1.03 | 1.04 | 1.04 | 0.263 | 0.42 | 0.312 | 0.239 | 0.838 | 0.878 | 0.726 | 0.894 | 0.384 | – | – | – | – | – | –

— the supplement of paper PMC10307832
